{"source": "ChEMBL document CHEMBL4052649", "about": "“Structure-activity relationships for flavone interactions with amyloid β reveal a novel anti-aggregatory and neuroprotective effect of 2',3',4'-trihydroxyflavone (2-D08)” (Bioorg Med Chem, 2017)", "key": {"[1]": {"target": "Amyloid-beta precursor protein (Homo sapiens) (UniProt P05067)", "sequence (P05067 whole entry)": "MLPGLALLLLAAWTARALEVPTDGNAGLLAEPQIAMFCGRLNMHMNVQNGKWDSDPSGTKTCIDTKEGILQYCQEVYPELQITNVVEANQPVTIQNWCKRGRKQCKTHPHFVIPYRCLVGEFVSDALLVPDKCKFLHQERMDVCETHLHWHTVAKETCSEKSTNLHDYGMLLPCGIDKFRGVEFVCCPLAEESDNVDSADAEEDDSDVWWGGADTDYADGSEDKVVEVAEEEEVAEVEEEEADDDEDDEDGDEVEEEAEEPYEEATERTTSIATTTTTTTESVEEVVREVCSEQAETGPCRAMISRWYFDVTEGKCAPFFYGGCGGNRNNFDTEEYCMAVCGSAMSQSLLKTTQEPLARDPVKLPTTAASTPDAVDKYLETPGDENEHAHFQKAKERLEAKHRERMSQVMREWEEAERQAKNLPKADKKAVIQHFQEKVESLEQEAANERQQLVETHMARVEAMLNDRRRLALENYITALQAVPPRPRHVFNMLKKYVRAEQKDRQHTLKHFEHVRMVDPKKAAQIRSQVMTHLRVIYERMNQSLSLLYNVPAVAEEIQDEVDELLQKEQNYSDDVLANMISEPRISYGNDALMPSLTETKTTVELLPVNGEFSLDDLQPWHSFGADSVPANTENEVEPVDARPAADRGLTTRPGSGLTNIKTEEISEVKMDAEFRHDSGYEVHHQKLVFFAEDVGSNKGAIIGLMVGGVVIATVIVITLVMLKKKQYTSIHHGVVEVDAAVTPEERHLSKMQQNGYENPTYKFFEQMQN", "assay": "Inhibition of human amyloid beta (1 to 42) assessed as neuroprotective activity up to 2 uM of amyloid beta (1 to 42)-induced toxicity in rat PC12 cells by measuring reduction in cell viability at 100 uM incubated 15 mins prior to amyloid beta (1 to 42) addition measured after 48 hrs by MTT assay", "format": "cell-based"}, "[2]": {"target": "Amyloid-beta precursor protein (Homo sapiens) (UniProt P05067)", "assay": "Inhibition of human amyloid beta (1 to 42) assessed as neuroprotective activity at 2 uM of amyloid beta (1 to 42)-induced toxicity in rat PC12 cells by measuring reduction in cell viability at 10 to 50 uM incubated 15 mins prior to amyloid beta (1 to 42) addition measured after 48 hrs by MTT assay", "format": "cell-based"}, "[3]": {"target": "Amyloid-beta precursor protein (Homo sapiens) (UniProt P05067)", "assay": "Inhibition of human amyloid beta (1 to 42) assessed as reduction in fibrillisation AUC in cell-free solution at 100 uM measured every 10 mins for 48 hrs by Thioflavin T based fluorescence assay"}, "[4]": {"target": "Amyloid-beta precursor protein (Homo sapiens) (UniProt P05067)", "assay": "Inhibition of human amyloid beta (1 to 42) assessed as neuroprotective activity at 2 uM of amyloid beta (1 to 42)-induced toxicity in rat PC12 cells by measuring reduction in cell viability at 100 uM incubated 15 mins prior to amyloid beta (1 to 42) addition measured after 48 hrs by MTT assay", "format": "cell-based"}, "[5]": {"target": "Amyloid-beta precursor protein (Homo sapiens) (UniProt P05067)", "assay": "Inhibition of human amyloid beta (1 to 42) fibrillisation in cell-free solution at 100 uM measured every 10 mins up to 48 hrs by Thioflavin T based fluorescence assay"}, "[6]": {"target": "Amyloid-beta precursor protein (Homo sapiens) (UniProt P05067)", "assay": "Inhibition of human amyloid beta (1 to 42) aggregation assessed as loosely attached/thin fibrils at 100 uM after 48 hrs by transmission electron microscopic analysis"}, "[7]": {"target": "Amyloid-beta precursor protein (Homo sapiens) (UniProt P05067)", "assay": "Inhibition of human amyloid beta (1 to 42) aggregation assessed as reduction in fibril formation at 100 uM after 48 hrs by transmission electron microscopic analysis"}, "[8]": {"target": "Amyloid-beta precursor protein (Homo sapiens) (UniProt P05067)", "assay": "Inhibition of human amyloid beta (1 to 42) assessed as neuroprotective activity at 2 uM of amyloid beta (1 to 42)-induced toxicity in rat PC12 cells by measuring reduction in cell viability incubated 15 mins prior to amyloid beta (1 to 42) addition measured after 48 hrs by MTT assay", "format": "cell-based"}, "[9]": {"target": "Amyloid-beta precursor protein (Homo sapiens) (UniProt P05067)", "assay": "Inhibition of human amyloid beta (1 to 42) aggregation at 100 uM after 48 hrs by transmission electron microscopic analysis"}, "[10]": {"system": "PC-12", "assay": "Cytotoxicity against rat PC12 cells assessed as reduction in cell viability at 100 uM after 48 hrs in presence of 0.1 uM amyloid beta (1 to 42) by MTT assay", "format": "cell-based", "conditions": "pc-12, 48 h"}, "[11]": {"target": "Amyloid-beta precursor protein (Homo sapiens) (UniProt P05067)", "assay": "Inhibition of human amyloid beta (1 to 42) assessed as neuroprotective activity up to 1 uM of amyloid beta (1 to 42)-induced toxicity in rat PC12 cells by measuring reduction in cell viability at 100 uM incubated 15 mins prior to amyloid beta (1 to 42) addition measured after 48 hrs by MTT assay", "format": "cell-based"}, "[12]": {"target": "Amyloid-beta precursor protein (Homo sapiens) (UniProt P05067)", "assay": "Inhibition of human amyloid beta (1 to 42) fibrillisation in cell-free solution at 100 uM measured up to 16 hrs by Thioflavin T based fluorescence assay"}, "[13]": {"target": "Amyloid-beta precursor protein (Homo sapiens) (UniProt P05067)", "assay": "Inhibition of human amyloid beta (1 to 42) aggregation assessed as increase in preponderance of fibril meshwork formation at 100 uM after 48 hrs by transmission electron microscopic analysis"}, "[14]": {"target": "Amyloid-beta precursor protein (Homo sapiens) (UniProt P05067)", "assay": "Inhibition of human amyloid beta (1 to 42) assessed as neuroprotective activity against amyloid beta (1 to 42)-induced toxicity in rat PC12 cells by measuring reduction in cell viability at 50 to 100 uM incubated 15 mins prior to amyloid beta (1 to 42) addition measured after 48 hrs by MTT assay", "format": "cell-based"}, "[15]": {"target": "Amyloid-beta precursor protein (Homo sapiens) (UniProt P05067)", "assay": "Inhibition of human amyloid beta (1 to 42) assessed as neuroprotective activity against amyloid beta (1 to 42)-induced toxicity in rat PC12 cells by measuring reduction in cell viability at 10 uM incubated 15 mins prior to amyloid beta (1 to 42) addition measured after 48 hrs by MTT assay", "format": "cell-based"}, "[16]": {"system": "PC-12", "assay": "Cytotoxicity against rat PC12 cells assessed as reduction in cell viability at 100 uM after 48 hrs in presence of up to 2 uM amyloid beta (1 to 42) by MTT assay", "format": "cell-based", "conditions": "pc-12, 48 h"}, "[17]": {"system": "PC-12", "assay": "Cytotoxicity against rat PC12 cells assessed as reduction in cell viability at 100 uM after 48 hrs by MTT assay", "format": "cell-based", "conditions": "pc-12, 48 h"}}, "note": "Calls of active or inactive are those of the source. No cut-off for these calls is given here.", "data": [{"smiles": "COc1c(-c2ccc(O)c(O)c2)oc2c(O)c(O)ccc2c1=O", "values": [{"measurement": "inhibition", "setting": "[1]", "value": "Active"}, {"measurement": "inhibition", "setting": "[2]", "value": "Active"}, {"measurement": "inhibition", "setting": "[3]", "value": "Active"}, {"measurement": "inhibition", "setting": "[4]", "value": "inactive"}, {"measurement": "inhibition", "setting": "[5]", "value": "Active"}, {"measurement": "inhibition", "setting": "[6]", "value": "Active"}]}, {"smiles": "O=c1cc(-c2ccc(O)c(O)c2O)oc2ccccc12", "values": [{"measurement": "inhibition", "setting": "[7]", "value": "Active"}, {"measurement": "inhibition", "setting": "[1]", "value": "Active"}, {"measurement": "inhibition", "setting": "[8]", "value": "Dose-dependent effect"}, {"measurement": "inhibition", "setting": "[3]", "value": "Active"}, {"measurement": "inhibition", "setting": "[5]", "value": "Active"}, {"measurement": "inhibition", "setting": "[9]", "value": "Active"}]}, {"smiles": "COc1cc(-c2cc(=O)c3c(O)c(OC)c(O)cc3o2)ccc1O", "note": "[JACEOSIDINE]", "values": [{"measurement": "inhibition", "setting": "[3]", "value": "inactive"}, {"measurement": "Activity", "setting": "[10]", "value": "Toxic"}, {"measurement": "inhibition", "setting": "[11]", "value": "inactive"}, {"measurement": "inhibition", "setting": "[9]", "value": "Active"}, {"measurement": "inhibition", "setting": "[12]", "value": "Active"}]}, {"smiles": "COc1ccc(-c2cc(=O)c3c(OC)c(OC)c(OC)c(OC)c3o2)cc1OC", "note": "[NOBILETIN]", "values": [{"measurement": "inhibition", "setting": "[3]", "value": "inactive"}, {"measurement": "Activity", "setting": "[10]", "value": "Toxic"}, {"measurement": "inhibition", "setting": "[11]", "value": "inactive"}, {"measurement": "inhibition", "setting": "[13]", "value": "inactive"}, {"measurement": "inhibition", "setting": "[12]", "value": "inactive"}]}, {"smiles": "O=c1c(O)c(-c2ccc(O)c(O)c2)oc2cc(O)cc(O)c12", "note": "[QUERCETIN]", "values": [{"measurement": "inhibition", "setting": "[14]", "value": "inactive"}, {"measurement": "inhibition", "setting": "[1]", "value": "inactive"}, {"measurement": "inhibition", "setting": "[15]", "value": "Active"}, {"measurement": "Activity", "setting": "[16]", "value": "Non-Toxic"}, {"measurement": "inhibition", "setting": "[3]", "value": "Active"}, {"measurement": "inhibition", "setting": "[5]", "value": "Active"}, {"measurement": "Activity", "setting": "[17]", "value": 25, "unit": "%"}, {"measurement": "inhibition", "setting": "[6]", "value": "Active"}]}]}
